{
  "source": "patent US8653261B2",
  "about": "“Modified actinomycin-based nucleic acid stains and methods of their use” (priority 2008, dated 2014)",
  "key": {"dead cells": {"system": "dead cells", "details": "dead cell identification; cited from earlier work"}, "fixed cells": {"system": "fixed cells", "details": "cited from earlier work"}, "HeLa cells": {"system": "HeLa cells", "assay": "High content imaging of stained HeLa cells with valinomycin treatment", "assay_type": "cell-based", "details": "for killing of HeLa cells: 24 hours", "experimental": "HeLa cells were either untreated or treated with two concentrations (15 μM and 120 μM) of valinomycin (VLM) as a killing agent for 24 hours before labeling with Compound 7 and with the nuclear counterstain Hoechst 33342 dye (Invitrogen Corporation, Carlsbad, Calif.). At 24 hours of treatment, normal cell growth medium containing 2× final concentration of Hoechst 33342 and Compound 7 was added to the existing medium to result in 1× final concentration. Cells were incubated for 30 minutes at 37° C. and then the drug/dye mixture was replaced with PBS for imaging using a high content automated imaging system (ArrayScan VTI from Thermo/Fisher) using a Texas Red filter set."}, "Jurkat T cells": {"system": "Jurkat T cells", "assay": "Imaging flow cytometry of stained Jurkat cells with camptothecin treatment", "assay_type": "cell-based", "details": "1 μM camptothecin, 4 hours", "experimental": "Jurkat T cells were incubated in the presence or absence of 1 μM camptothecin (CPT) for 4 hours to induce apoptosis, then stained with 2.5 μM Compound 7 for 15 minutes at room temperature and analyzed on an AMNIS ImageStream multispectral imaging flow cytometer. Gating on 10,000 collected events with intermediate brightfield (BF) area and high BF aspect ratio (width:height) was performed to distinguish single cells from debris and multi-cellular clumps. Cells with nuclear dye uptake were gated (R3) on the Intensity 180 plot. Cells untreated with camptothecin are shown in the top middle histogram of FIG. 3, with 8.0% stain positive (dead cells) as identified in the R3 gate. The positively stained cells show typical brightfield morphology of dead cells, while the cells negative (live cells) show typical brightfield morphology of live cells.\nCells treated with the apoptotic inducing agent camptothecin (FIG. 3B) (bottom middle histogram), with 68.4% stain positive as identified in the R3 gate. The positively stained cells show typical brightfield morphology of dead cells and stained nuclei typical of apoptosis and cell death that is condensed and fragmented, while the cells negative for staining (live cells) show typical brightfield morphology of live cells. […] Cells negative for stain show morphology typical of healthy cells."}},
  "data": [
    {"smiles": "Cc1c2oc3c(C)c(N)cc(C(=O)N[C@@H]4C(=O)N[C@H](C(C)C)C(=O)N5CCC[C@H]5C(=O)N(C)CC(=O)N(C)[C@@H](C(C)C)C(=O)O[C@@H]4C)c3nc-2c(C(=O)N[C@@H]2C(=O)N[C@H](C(C)C)C(=O)N3CCC[C@H]3C(=O)N(C)CC(=O)N(C)[C@@H](C(C)C)C(=O)O[C@@H]2C)c(N)c1=O", "note": "[Compound 7-AAD, 7-aminoactinomycin D]", "values": [
      {"measurement": "time of staining process to fully equilibrate", "setting": "dead cells", "result": "about 30 minutes"},
      {"measurement": "variability of DNA content cell cycle histogram (% CV of the G0G1 peak)", "setting": "fixed cells", "result": "high degree of variability"}
    ]},
    {"smiles": "CCOc1ccc(-c2nc3ccc(-c4nc5ccc(N6CCN(C)CC6)cc5[nH]4)cc3[nH]2)cc1", "note": "[Hoechst 33342]", "values": [
      {"measurement": "nuclear counterstain labeling of HeLa cells", "setting": "HeLa cells; untreated or valinomycin-treated cells", "result": "labeling both live and dead cells"}
    ]},
    {"smiles": "CC[C@@]1(O)C(=O)OCc2c1cc1n(c2=O)Cc2cc3ccccc3nc2-1", "note": "[camptothecin]", "values": [
      {"measurement": "cell death measurable by staining with Compound 7", "setting": "Jurkat T cells", "result": "induced significant cell death"}
    ]},
    {"smiles": "CC(C)[C@@H]1NC(=O)[C@H](C)OC(=O)[C@@H](C(C)C)NC(=O)[C@@H](C(C)C)OC(=O)[C@H](C(C)C)NC(=O)[C@H](C)OC(=O)[C@@H](C(C)C)NC(=O)[C@@H](C(C)C)OC(=O)[C@H](C(C)C)NC(=O)[C@H](C)OC(=O)[C@@H](C(C)C)NC(=O)[C@@H](C(C)C)OC1=O", "note": "[valinomycin]", "values": [
      {"measurement": "killing of HeLa cells", "setting": "HeLa cells; 15 μM valinomycin", "result": "less effective in killing HeLa cells"},
      {"measurement": "killing of HeLa cells", "setting": "HeLa cells; 120 μM valinomycin", "result": "effective in killing HeLa cell"}
    ]}
  ]
}
